Results on 21 compounds are retold here after ChEMBL document CHEMBL4418282, “Compounds and methods for inhibiting fascin” (2017).

Molecules are shown by their SMILES.

The target of the first test is Fascin (Homo sapiens) (UniProt Q16658). Description: Inhibition of purified fascin (unknown origin) assessed as reduction in bundle activity at 50 uM pre-incubated for 30 mins before polymerized actin addition and followed by Alexa fluro 488 phalloidin addition after 30 mins and measured after 1 hr under dark condition relative to control.
Settings: not given
On to `Cc1ccc(-c2ccc(C(=O)Nc3nn(Cc4ccc(C(F)(F)F)cc4)c4ccccc34)o2)cc1`, for which the inhibition was less than 10%.
For the compound `O=C(Nc1nn(Cc2ccc(C(F)(F)F)cc2)c2cncc(Cl)c12)c1ccoc1`, the inhibition was less than 10%.
With `Cc1occc1-c1nn(Cc2ccc(C(F)(F)F)cc2)c2ccccc12`, the inhibition is less than 10%.
On to `Cc1ccc(-c2nn(Cc3ccc(C(F)(F)F)cc3)c3ccccc23)o1`, for which the inhibition is less than 10%.
`FC(F)(F)c1ccc(Cn2nc(-c3cccc4ccccc34)c3ccccc32)cc1`: the inhibition is less than 10%.
Turning to `Cc1occc1C(=O)Nc1nn(Cc2ccc(C(F)(F)F)cc2)c2cncc(Cl)c12`, the inhibition was less than 10%.
With `CC(=O)Nc1nn(Cc2ccc(C(F)(F)F)cc2)c2cncc(Cl)c12`, the inhibition was less than 10%.
Consider `FC(F)(F)c1ccc(Cn2nc(Br)c3ccccc32)cc1`, for which the inhibition was less than 10%.
Take `CCCC(=O)Nc1nn(Cc2ccc(C(F)(F)F)cc2)c2cncc(Cl)c12`: the inhibition was less than 10%.
For `Cc1nocc1C(=O)Nc1nn(Cc2ccc(C(F)(F)F)cc2)c2cncc(Cl)c12`, the inhibition is less than 10%.
On to `O=[N+]([O-])c1cn(Cc2ccccc2)c2ccc(Br)cc12`, for which the inhibition is less than 10%.
Same read-out and setting: the figure for `O=[N+]([O-])c1cn(Cc2ccc(C(F)(F)F)cc2)c2ccc(Br)cc12` is less than 10%; for `O=C(Nc1nn(Cc2ccc(C(F)(F)F)cc2)c2ccccc12)c1cccc(Cl)c1` it is less than 10%; for `N#Cc1ccccc1C(=O)Cc1nn(Cc2ccc(C(F)(F)F)cc2)c2ccccc12` it is less than 10%.
The same measure, in the same setting: for `O=C(Nc1nn(Cc2ccc(C(F)(F)F)cc2)c2ccccc12)c1ccc(Cl)cc1` the value was less than 10%; for `CNc1nn(Cc2ccc(C(F)(F)F)cc2)c2cncc(Cl)c12`, less than 10%.
With `FC(F)(F)c1ccc(Cn2nc(-c3ccccc3)c3ccccc32)cc1`, the inhibition was less than 10%.
In the case of `FC(F)(F)c1ccc(Cn2nc(-c3ccoc3)c3ccccc32)cc1`, the inhibition is less than 10%.
On to `Cc1ncsc1C(=O)Nc1nn(Cc2ccc(C#N)cc2)c2ccccc12`, for which the inhibition is less than 10%.

A further test has as its system 4T1. Put plainly: Antitumor activity against mouse 4T1 cells implanted in Balb/c mouse assessed as reduction in tumor growth in lungs at 100 mg/kg, administered daily for 2 weeks starting 7 days after tumor implantation and measured on day 28 by methylene blue staining based assay relative to control. The note with it: read-out: TGI. Format: functional.
For `Cc1occc1C(=O)Nc1nn(Cc2ccc(C(F)(F)F)cc2)c2ccccc12` [NP-G2-044], the inhibition in vivo at 100 mg/kg is more than 90%.
On to `Cc1ncsc1C(=O)Nc1nn(Cc2ccc(C(F)(F)F)cc2)c2ccccc12`, for which the inhibition in vivo at 100 mg/kg was more than 90%.
